Structures are written as SMILES.

Chain of human PDE10A2 (Q9Y233 267-1055): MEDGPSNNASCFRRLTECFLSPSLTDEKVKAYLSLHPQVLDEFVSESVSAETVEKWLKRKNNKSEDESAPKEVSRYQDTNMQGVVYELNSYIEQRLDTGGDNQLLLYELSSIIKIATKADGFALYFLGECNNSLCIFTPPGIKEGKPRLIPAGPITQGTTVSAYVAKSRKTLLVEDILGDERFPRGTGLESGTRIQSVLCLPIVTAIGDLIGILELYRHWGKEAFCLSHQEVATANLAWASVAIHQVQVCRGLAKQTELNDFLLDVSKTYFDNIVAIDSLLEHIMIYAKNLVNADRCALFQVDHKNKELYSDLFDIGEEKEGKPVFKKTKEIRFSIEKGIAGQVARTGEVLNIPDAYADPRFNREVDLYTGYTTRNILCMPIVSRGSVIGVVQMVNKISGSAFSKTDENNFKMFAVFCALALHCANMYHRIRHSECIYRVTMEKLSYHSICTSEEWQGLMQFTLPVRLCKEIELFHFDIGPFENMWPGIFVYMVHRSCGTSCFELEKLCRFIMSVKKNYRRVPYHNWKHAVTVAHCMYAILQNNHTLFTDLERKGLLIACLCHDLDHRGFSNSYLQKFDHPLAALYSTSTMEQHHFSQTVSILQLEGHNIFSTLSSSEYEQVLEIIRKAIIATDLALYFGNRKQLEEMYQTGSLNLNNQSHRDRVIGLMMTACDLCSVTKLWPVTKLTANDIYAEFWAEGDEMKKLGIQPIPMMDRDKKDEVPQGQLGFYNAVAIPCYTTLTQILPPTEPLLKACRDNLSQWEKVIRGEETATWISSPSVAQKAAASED
Chain of CYP3A4 (P08684 whole entry): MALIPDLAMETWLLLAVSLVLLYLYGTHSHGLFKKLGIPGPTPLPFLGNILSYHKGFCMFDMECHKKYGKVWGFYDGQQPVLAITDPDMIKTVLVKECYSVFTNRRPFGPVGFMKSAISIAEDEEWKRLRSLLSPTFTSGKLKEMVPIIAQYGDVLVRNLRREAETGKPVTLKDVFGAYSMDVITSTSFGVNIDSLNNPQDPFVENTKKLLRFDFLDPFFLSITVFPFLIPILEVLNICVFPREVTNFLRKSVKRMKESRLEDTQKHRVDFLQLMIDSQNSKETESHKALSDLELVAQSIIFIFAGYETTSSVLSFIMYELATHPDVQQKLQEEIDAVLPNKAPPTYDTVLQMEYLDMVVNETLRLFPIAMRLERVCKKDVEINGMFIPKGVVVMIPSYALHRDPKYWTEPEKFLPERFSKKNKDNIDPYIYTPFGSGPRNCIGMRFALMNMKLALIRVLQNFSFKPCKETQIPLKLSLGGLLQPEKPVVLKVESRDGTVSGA
Chain of CYP2C9 (P11712 whole entry): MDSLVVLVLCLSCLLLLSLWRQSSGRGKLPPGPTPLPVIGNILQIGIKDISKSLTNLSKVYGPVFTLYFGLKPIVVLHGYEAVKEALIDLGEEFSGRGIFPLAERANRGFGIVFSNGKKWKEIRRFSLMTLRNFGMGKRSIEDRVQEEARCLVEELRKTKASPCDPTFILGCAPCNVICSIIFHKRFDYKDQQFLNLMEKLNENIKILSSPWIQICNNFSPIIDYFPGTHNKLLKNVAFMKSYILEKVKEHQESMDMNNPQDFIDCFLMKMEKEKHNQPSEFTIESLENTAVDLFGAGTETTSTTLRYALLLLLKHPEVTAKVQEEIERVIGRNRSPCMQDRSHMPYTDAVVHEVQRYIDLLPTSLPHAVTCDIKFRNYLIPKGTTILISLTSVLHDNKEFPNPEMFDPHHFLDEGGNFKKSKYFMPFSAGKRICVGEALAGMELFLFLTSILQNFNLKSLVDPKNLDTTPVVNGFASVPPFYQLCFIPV

One data set concerns the target CYP3A4 (Homo sapiens (Human), UniProt P08684). Description: time-dependent inhibition (TDI) of CYP3A4. Conditions: result in words. It is filed as in vitro ADME.
Consider `CCC(O)c1nc(C)nn1-c1cc([C@@H]2C[C@H]2c2nc3ccccc3n2C)nc(C)n1` (single isomer, unassigned) [Example 19a], for which the “time-dependent inhibition (TDI) of the CYP3A4 enzyme” value is “do not exhibit TDI of CYP3A4”.

Another data set has as its target CYP2C9 (Homo sapiens (Human), UniProt P11712). Description: reversible inhibition of CYP2C9. The format is in vitro ADME.
Details: not given
Broadly, the IC50 is the concentration at which inhibition is half-maximal. Lower therefore signals greater potency. With `CCC(O)c1nc(C)nn1-c1cc([C@@H]2C[C@H]2c2nc3ccccc3n2C)nc(C)n1` (single isomer, unassigned) [Example 19a], the IC50 was > 50000 nM.

The next data set deals with human PDE10A2 (Homo sapiens (Human), UniProt Q9Y233). Description: PDE10 fluorescence polarization (IMAP FP) inhibition assay. Conditions: read-out: PDE10a Ki. It is filed as biochemical. As for the experimental part:
The activity of the compounds in accordance with the present invention as PDE10 inhibitors may be readily determined without undue experimentation using a fluorescence polarization (FP) methodology that is well known in the art (Huang, W., et al., J. Biomol Screen, 2002, 7: 215).
In a typical experiment the PDE10 inhibitory activity of the compounds of the present invention was determined in accordance with the following experimental method. PDE10A2 was amplified from human fetal brain cDNA (Clontech, Mountain View, Calif.) using a forward primer corresponding to nucleotides 56-77 of human PDE10A2 (Accession No. AF127480, Genbank Identifier 4894716), containing a Kozak consensus sequence, and a reverse primer corresponding to nucleotides 2406-2413 of human PDE10A2 (Accession No. AF127480, Genbank Identifier 4894716). Amplification with Easy-A polymerase (Stratagene, La Jolla, Calif.) was 95° C. for 2 minutes followed by thirty three cycles of 95° C. for 40 seconds, 55° C. for 30 seconds, and 72° C. for 2 minutes 48 seconds. Final extension was 72° C. for 7 minutes. The PCR product was TA cloned into pcDNA3.2-TOPO (Invitrogen, Carlsbad, Calif.) according to standard protocol. AD293 cells with 70-80% confluency were transiently transfected with human PDE10A2/pcDNA3.2-TOPO using Lipofectamine 2000 according to manufacturer specifications (Invitrogen, Carlsbad, Calif.). Cells were harvested 48 hours post-transfection and lysed by sonication (setting 3, 10×5 sec pulses) in a buffer containing 20 mM HEPES, 1 mM EDTA and protease inhibitor cocktail (Roche). Lysate was collected by centrifugation at 75,000×g for 20 minutes. Supernatant containing the cytoplasmic fraction was used for evaluation of PDE10A2 activity. The fluorescence polarization assay for cyclic nucleotide phosphodiesterases was performed using an IMAP® FP kit supplied by Molecular Devices, Sunnyvale, Calif. (product # R8139). IMAP® technology has been applied previously to phosphodiesterase assays (Huang, W., et al., J. Biomol Screen, 2002, 7: 215). Assays were performed at room temperature in 384-well microtiter plates with an incubation volume of 20.2 μL. Solutions of test compounds were prepared in DMSO and serially diluted with DMSO to yield 8 μL of each of 10 solutions differing by 3-fold in concentration, at 32 serial dilutions per plate. […] 0% of inhibition is determined by using DMSO (1% final concentrations).
A Labcyte Echo 555 (Labcyte, Sunnyvale, Calif.) is used to dispense 200 nL from each well of the titration plate to the 384 well assay plate. A solution of enzyme (1/1600 dilution from aliquots; sufficient to produce 20% substrate conversion) and a separate solution of FAM-labeled cAMP PDE from Molecular Devices (product # R7506), at a final concentration of 50 nM are made in the assay buffer (10 mM Tris HCl, pH 7.2, 10 mM MgCl2, 0.05% NaN3 0.01% Tween-20, and 1 mM DTT). The enzyme and the substrate are then added to the assay plates in two consecutive additions of 10 μL, and then shaken to mix. The reaction is allowed to proceed at room temperature for 30 minutes. […] The enzymatic reaction is stopped by addition of 60 μL of the binding solution to each well of the assay plates and the plates are sealed and shaken for 10 seconds. The plate was incubated at room temperature for at least one hour prior to determining the fluorescence polarization (FP). The parallel and perpendicular fluorescence of each well of the plate was measured using a Perkin Elmer EnVision™ plate reader (Waltham, Mass.).
Fluorescence polarization (mP) was calculated from the parallel (S) and perpendicular (P) fluorescence of each sample well and the analogous values for the median control well, containing only substrate (So and Po), using the following equation: Polarization (mP)=1000*(S/So−P/Po)/(S/So+P/Po).
Dose-inhibition profiles for each compound were characterized by fitting the mP data to a four-parameter equation given below.
(In general: Fluorescence polarisation rises when a labelled molecule tumbles more slowly, as on binding a larger partner.)
In general, Ki refers to the dissociation constant of the complex between target and ligand, obtained from inhibition or displacement. In the case of `Cc1nc([C@@H]2C[C@H]2c2nc3ccccc3n2C)cc(-n2nc(C)nc2[C@@H](O)c2ccccc2)n1` [Example 16, (S)-(3-methyl-1-(2-methyl-6-((1R,2R)-2-(1-methyl-1H-benzo[d]imidazol-2-yl)cyclopropyl)pyrimidin-4-yl)-1H-1,2,4-triazol-5-yl)(phenyl)methanol], the inhibitory constant (Ki) is 0.62 nM. As to `Cc1nc(N2CC(c3nc4ccccc4n3C)C2)cc(-n2nc(C)nc2C(O)C(C)C)n1` (single isomer, unassigned) [Example 5a, 2-methyl-1-(3-methyl-1-(2-methyl-6-(3-(1-methyl-1H-benzo[d]imidazol-2-yl)azetidin-1-yl)pyrimidin-4-yl)-1H-1,2,4-triazol-5-yl)propan-1-ol], the inhibition constant Ki came to 0.34 nM. In the case of `Cc1nc(N2CC(c3nc4ccccc4n3C)C2)cc(-n2nc(C)nc2C(O)C(F)(F)F)n1` (single isomer, unassigned) [Example 3a, 2,2,2-trifluoro-1-(3-methyl-1-(2-methyl-6-(3-(1-methyl-1H-benzo[d]imidazol-2-yl)azetidin-1-yl)pyrimidin-4-yl)-1H-1,2,4-triazol-5-yl)ethanol], the Ki came out at 1 nM. For the molecule `Cc1nc(N2CC(c3nc4ccccc4n3C)C2)cc(-n2nc(C)nc2C(O)C(C)C)n1` (single isomer, unassigned) [Example 5b, 2-methyl-1-(3-methyl-1-(2-methyl-6-(3-(1-methyl-1H-benzo[d]imidazol-2-yl)azetidin-1-yl)pyrimidin-4-yl)-1H-1,2,4-triazol-5-yl)propan-1-ol], the Ki stood at 0.77 nM.

On to `Cc1nc([C@H](C)O)n(-c2cc([C@@H]3C[C@H]3c3nc4ccccc4n3C)nc(C(F)(F)F)n2)n1` [Example 17, (S)-1-(3-methyl-1-(6-((1R,2R)-2-(1-methyl-1H-benzo[d]imidazol-2-yl)cyclopropyl)-2-(trifluoromethyl)pyrimidin-4-yl)-1H-1,2,4-triazol-5-yl)ethanol], for which the inhibition constant (Ki) turned out to be 2.8 nM. On to `Cc1nc([C@@H]2C[C@H]2c2nc3ccccc3n2C)cc(-n2nc(C)nc2C(O)C(C)C)n1` (stereo partly drawn) [Example 21, 2-methyl-1-(3-methyl-1-(2-methyl-6-((1R,2R)-2-(1-methyl-1H-benzo[d]imidazol-2-yl)cyclopropyl)pyrimidin-4-yl)-1H-1,2,4-triazol-5-yl)propan-1-ol], for which the inhibition constant Ki turned out to be 0.47 nM. The same measure, in the same setting: the figure for `Cc1nc(N2CC(c3nc4ccccc4n3C)C2)cc(-n2nc(C)nc2C(O)C(F)F)n1` (single isomer, unassigned) [Example 11b, 2,2-difluoro-1-(3-methyl-1-(2-methyl-6-(3-(1-methyl-1H-benzo[d]imidazol-2-yl)azetidin-1-yl)pyrimidin-4-yl)-1H-1,2,4-triazol-5-yl)ethanol] is 3 nM; for `Cc1nc(N2CC(c3nc4ccccc4n3C)C2)cc(-n2nc(C)nc2C(O)C(F)(F)F)n1` (racemic) [Example 3, 2,2,2-trifluoro-1-(3-methyl-1-(2-methyl-6-(3-(1-methyl-1H-benzo[d]imidazol-2-yl)azetidin-1-yl)pyrimidin-4-yl)-1H-1,2,4-triazol-5-yl)ethanol] it is 0.11 nM. Same read-out and setting: the figure for `Cc1nc(N2CC(c3nc4ccccc4n3C)C2)cc(-n2nc(C)nc2C(O)C2CC2)n1` (centres unmarked) [Example 6, cyclopropyl(3-methyl-1-(2-methyl-6-(3-(1-methyl-1H-benzo[d]imidazol-2-yl)azetidin-1-yl)pyrimidin-4-yl)-1H-1,2,4-triazol-5-yl)methanol] is 0.36 nM.
